Experiments:
[1] = system: MGH-U3, KK47, J82 and RT112 cells; test: Cell viability after siRNA transfection (trypan blue count); assay type: cell-based, human; conditions: 50 nM siRNA, 72 hours after transfection
Procedure: (§1) After transfection as described in the legend of FIG. 4, cells were treated with trypsin 72 hours after transfection, stained with trypan blue and viable cells were counted in triplicate, using a Malassez hematocytometer. Results are the means+/−SD of two independent experiments carried out in triplicate.
(§2) In order to investigate the role of TYRO3 in cell growth and tumorigenic properties, TYRO3 expression was blocked using RNA interference technology or TYRO3 activity was inhibited using a blocking antibody directed against the extracellular domain of TYRO3 or a soluble receptor consisting of the recombinant extracellular domain of TYRO3 produced in bacteria. Two cell lines expressing TYRO3 (MGH-U3, KK47), two cell lines expressing both TYRO3 and GAS6 (J82, RT112) and one control breast cancer derived cell line presenting a very low TYRO3 expression level (MCF-7) were used. It was shown by western blot using an anti-phosphotyrosine antibody after TYRO3 immunoprecipitation that in each type of cell line (expressing or not GAS6), TYRO was activated (data not shown).

[2] = system: MGH-U3 xenografts; test: Growth of MGH-U3 xenografts, siRNA treatment; assay type: in vivo, athymic nude mice
Procedure: Tumor-bearing mice were treated three times a week by intraperitoneal injection of 4 μg siRNA (control or TYRO3) (6 mice and 12 tumors per group) (The first injection corresponds to day 0). Tumor volume variations are represented on the graph of FIG. 12A. (Wilcoxon rank sum test: *, 0.05<p<0.01, **, 0.01<p<0.001, ***, p<0.001) Inset are pictures of representative tumors observed at the end of the treatment. The upper line tumors are those of TYRO3 siRNA treated mice. The middle line tumors are those of control siRNA treated mice. The lower line tumors are those of PBS treated mice. Tumors were weighted at the end of the experiment (FIG. 12B).
The role of this gene in bladder cancer cell growth in vivo was studied. J82 and MGH-U3 cells were implanted subcutaneously in athymic nude mice. Once tumors were established, mice were randomly selected for treatment with control or TYRO3-specific siRNAs. For J82 xenografts, two weeks after the beginning of treatment only three tumors out of 12 were still observed (FIGS. 11A and 11B). For MGH-U3 xenografts, after 21 days of treatment, tumor volume was 70% lower in mice treated with TYRO3 siRNA than in mice treated with control siRNA (Wilcoxon rank-sum test, p<0.001) (FIGS. 12A and 12B).

[3] = system: MCF7 cells; test: Cell viability after siRNA transfection, control cell line with very low TYRO3 expression; assay type: cell-based, human
Procedure: as §1, §2

[4] = system: MGH-U3, KK47, RT112 and J82 colonies; test: Anchorage-independent colony formation in soft agar; assay type: cell-based, human; conditions: 50 nM siRNA, two weeks
Procedure: 2.10^4 50 nM siRNA-transfected cells in DMEM supplemented with 10% FCS and 0.3% agar, were added to triplicate wells containing medium and 0.8% agar on 12-well plates. The plates were incubated for two weeks and colonies with diameters greater than 50 μm were scored as positive, using a phase-contrast microscope equipped with a measuring grid. Results are the means+/−SD of two independent experiments carried out in triplicate.

[5] = system: bladder cancer cells; test: Cell cycle analysis by flow-cytometry 72 h post siRNA transfection; assay type: cell-based, human
Procedure: Results were analyzed using Fisher test, *** p<0.001, * 0.01<p<0.05

[6] = system: TYRO3; test: TYRO3 mRNA levels in MGH-U3 xenografts by Q-RT-PCR; assay type: in vivo, athymic nude mice; conditions: 3 days after the last siRNA injection, Student's t-test p<0,001
Excerpt: FIG. 13 is a graph showing TYRO3 mRNA levels for MGH-U3 xenografts, 3 days after the last siRNA injection, divided by TBP (TATA binding protein) mRNA levels+/−SD in treated and control tumors, as assessed by Q-RT-PCR.

[7] = system: TYRO3; test: Efficiency of TYRO3 silencing after siRNA transfection (mRNA and western-blot); assay type: cell-based, human; conditions: MGH-U3, KK47, J82 and RT112 cells; 50 nM siRNA; 72 hours after transfection
Procedure: Cells were transfected with 50 nM siRNA (siRNA anti-TYRO3 (SEQ ID No. 1) or control siRNA (scramble, SEQ ID No. 2)) and the efficiency of TYRO3 silencing was assessed 72 hours after transfection by western-blot.

[8] = system: bladder cancer cells; test: TUNEL assay on transfected bladder cancer cells; assay type: cell-based, human; conditions: 50 nM siRNA; 72 hours after transfection
Procedure: 3×10^4 cells per well were seeded on a glass slide in a 24-well plate and transfected with 50 nM siRNA. DNA fragmentation was evaluated 72 hours after transfection, using a TUNEL (deoxynucleotidyl transferase (Tdt)-mediated nick-end labeling) assay detection Kit (Roche Diagnostic, Meylan, France) according to the manufacturer's instructions. The inventors analyzed 600 cells under a light microscope, determining the proportion of labeled cells.

[9] = siRNA treated xenografts, data not shown

TYRO3 siRNA: siRNA anti-TYRO3 comprising the sequence of SEQ ID No. 1 (GGUGUGCCAUUUUUCACAGTT; chemistry not given here)
viable cells versus control siRNA [1]: fewer viable | tumor volume lower than in mice treated with control siRNA ([2]; MGH-U3 xenografts, after 21 days of treatment, 4 μg siRNA intraperitoneal three times a week, p<0.001): 70% | apoptosis in treated tumors (TUNNEL analysis) [2, 9]: increase apoptosis | histological difference between treated and control tumors [2, 9]: No histological difference | effect on viable cells [3]: no effect | viable colonies in soft agar assays [4]: fewer viable | change in cell-cycle progression [5]: significant but low change | TYRO3 mRNA levels in tumors [6]: significant decrease | inhibition of TYRO3 mRNA and protein levels [7]: 80-90% | apoptotic rate (TUNEL) [8]: increased apoptotic rate
